According to patent US20070141181A1, “Use of anabolic agents, anti-catabolic agents, antioxidant agents, and analgesics for protection, treatment and repair of connective tissues in humans and animals” (NUTRAMAX LABORATORIES, INC., priority 1998, published 2007):
Where “and” joins values, the source holds several entries; their conditions need not be identical. Equal entries are not always repeated.

Test system: adult bovine cartilage cells
Test: GAG synthesis (35-sulfate incorporation) in cultured cartilage cells
Format: cell-based
Details: 4 hours incubation, individual agent
Protocol: Articular cartilage was resected from human or animal joints aseptically and placed into a large petri dish in a small amount of DMEM/F-12 or F-12. The tissue was diced to 1-2 mm dimensions and transferred to a small culture flask containing 20 mL DMEM or F-12+400 u/mL collagenase. The flask was placed on the shaker and incubated overnight.
The cell digest was repeatedly aspirated to increase release of cells. The cell digest was then placed into a 50 mL sterile centrifuge tube and centrifuged in the Beckman at 1000 RPM for 10 minutes. The medium was discarded by pipette and fresh DMEM/F-12 containing 1% FCS added. Depending on the size of the pellet, about […] medium was added. Cell counts were determined by haemocytometer and the digest made up to a concentration of 100,000 cells/0.2 mL.
To conduct GAG synthesis, 0.2 mL was aliquoted into each well of a 96 well plate using an 8 channel pipetter and the cells allowed to attach for 24 hours. The media was removed and 0.3 mL of fresh 1% FCS media added for 2-3 days. On the day of the experiment, the media was removed and the experimental solutions containing 35-sulfate isotope were added. The incubation was continued for 4 hours. Termination: at the end of the incubation period, the labeling media was removed, the cell layer was rinsed repeatedly with cold 0.3 mL DMEM or F-12 (about 5 times.), and the cell layer was frozen for counting.
The cell layer for both the synthesis experiments were heated at 50 degrees after adding 100 ul 1 N NaOH for a period of 2 hours. 200 ul scintillant was added and the plates were placed in the counter. The data was expressed as CPM/100,000 cells.

| Molecule | Indv. Agents: CPM/100,000 cells | Indv. Agents: CPM/100,000 cells (listed as 3% Sam) | Indv. Agents: CPM/100,000 cells (listed as ChS04-H) |
| --- | --- | --- | --- |
| C[S+](CC[C@H](N)C(=O)[O-])C[C@H]1O[C@@H](n2cnc3c(N)ncnc32)[C@H](O)[C@@H]1O (some centres unmarked) [1% Sam, S-adenosylmethionine] | 123 CPM/100,000 cells | 42 CPM/100,000 cells | – |
| CCCCC/C=C\C/C=C\C/C=C\C/C=C\CCCC(=O)O [AA, Arachadonic Acid] | 70 CPM/100,000 cells | – | – |
| N[C@H]1C(O)O[C@H](CO)[C@@H](O)[C@@H]1O (some centres unmarked) [Glu-H, Glucosamine] | 117 CPM/100,000 cells | – | – |
| Chondroitin [CHSO4-L] | 64 CPM/100,000 cells | – | 50 CPM/100,000 cells |
| Collagen | 118 CPM/100,000 cells (3×) and 70 CPM/100,000 cells | – | – |
| Pentosan [10Pentos] | 76 CPM/100,000 cells | – | – |
